This assay deals with P388 leukemia ip, CD2F1 mice, survival T/C. Nature of the assay: NCI In Vivo Anticancer Drug Screen. Data for tumor model P388 Leukemia (intraperitoneal) in CD2F1 (CDF1) mice. The note with it: endpoint: median survival time, higher = longer survival. The gist of the method:
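Mice carrying the transplanted tumor received test compound or vehicle. Survival was recorded in each group, and the value is the treated-group measurement divided by that of the vehicle-treated control group.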

The mark [1] stands for this setting: dose: 100.0 mg/kg/injection, schedule: Q01DX009 (ip), vehicle: saline with Tween-80.
The mark [2] stands for this setting: dose: 60.0 mg/kg/injection, schedule: Q01DX005 (ip), vehicle: saline.
The mark [3] stands for this setting: dose: 50.0 mg/kg/injection, schedule: Q01DX005 (ip), vehicle: saline with Tween-80.
Where [4] appears, read: dose: 100.0 mg/kg/injection, schedule: Q01DX005 (ip), vehicle: saline with Tween-80.
The mark [5] stands for this setting: dose: 200.0 mg/kg/injection, schedule: Q01DX005 (ip), vehicle: saline with Tween-80.
Setting [6] is: dose: 60.0 mg/kg/injection, schedule: Q01DX005 (ip), vehicle: saline with Tween-80.
Where [7] appears, read: dose: 120.0 mg/kg/injection, schedule: Q01DX005 (ip), vehicle: saline with Tween-80.

“And” between values parts separate entries of the source, which are not always exact repeats. Equal values may be shown once. Toxic doses and inconclusive results are not listed.

Take `Cn1c(=O)c2[nH]c(Cc3ccsc3)nc2n(C)c1=O`: the T/C was 110 % of control (dose: 25.0 mg/kg/injection, schedule: Q01DX009 (ip), vehicle: Klucel (hydroxypropylcellulose) (HPC)); 93 % of control (dose: 50.0 mg/kg/injection, schedule: Q01DX009 (ip), vehicle: Klucel (hydroxypropylcellulose) (HPC)); 99 % of control and 95 % of control (dose: 100.0 mg/kg/injection, schedule: Q01DX009 (ip), vehicle: Klucel (hydroxypropylcellulose) (HPC)).

`CC(C)NCC(O)CC(c1ccccc1)c1ccccc1` (stereo not drawn): the T/C was 95 % of control (dose: 50.0 mg/kg/injection, schedule: Q01DX009 (ip), vehicle: saline with Tween-80) and 111 % of control under setting [1].

Consider `CCOC(=O)C(NC(C)=O)(C(=O)OCC)C1CCCCC1=O` (stereo not drawn), for which the T/C under setting [2] was 108 % of control; the T/C (dose: 120.0 mg/kg/injection, schedule: Q01DX005 (ip), vehicle: saline) was 96 % of control; the T/C (dose: 240.0 mg/kg/injection, schedule: Q01DX005 (ip), vehicle: saline) was 99 % of control.

As to `CCc1nc(N)nc(N)c1-c1ccc(OC)c(N)c1`, the T/C reads like this: under setting [3], 102 % of control and 116 % of control; under setting [4], 112 % of control; under setting [5], 119 % of control.

Turning to `CCCCC1(CCCCCCCCCO)OCCO1`, the T/C (dose: 100.0 mg/kg/injection, schedule: Q04DX002 (ip), vehicle: Klucel (hydroxypropylcellulose) (HPC)) is 101 % of control; the T/C (dose: 200.0 mg/kg/injection, schedule: Q04DX002 (ip), vehicle: Klucel (hydroxypropylcellulose) (HPC)) is 99 % of control; the T/C (dose: 400.0 mg/kg/injection, schedule: Q04DX002 (ip), vehicle: Klucel (hydroxypropylcellulose) (HPC)) is 100 % of control.

Take `O=C1OCC2OCCC12` (stereo not drawn): the T/C is 100 % of control (dose: 50.0 mg/kg/injection, schedule: Q01DX005 (ip), vehicle: saline); 100 % of control (dose: 100.0 mg/kg/injection, schedule: Q01DX005 (ip), vehicle: saline); 101 % of control (dose: 200.0 mg/kg/injection, schedule: Q01DX005 (ip), vehicle: saline).

As for `CC(=N\[O-])/C(C)=N/O.CC(=N\[O-])/C(C)=N/O.CC(=O)[O-].CC(=O)[O-].O.[Rh+2].[Rh+2]`, the T/C (dose: 6.25 mg/kg/injection, schedule: Q01DX009 (ip), vehicle: saline with Tween-80) is 123 % of control and the T/C (dose: 12.5 mg/kg/injection, schedule: Q01DX009 (ip), vehicle: saline with Tween-80) is 119 % of control.

Take `CC/S(=N\S(=O)(=O)c1ccc(C)cc1)c1ccccc1` (stereo not drawn): the T/C was 100 % of control under setting [1]; 109 % of control (dose: 200.0 mg/kg/injection, schedule: Q01DX009 (ip), vehicle: saline with Tween-80); 100 % of control (dose: 400.0 mg/kg/injection, schedule: Q01DX009 (ip), vehicle: saline with Tween-80).

As to `N=C(N)c1ccc(/C=C/c2cc3cc(C(=N)N)ccc3[nH]2)cc1`, the T/C is 101 % of control and 108 % of control (dose: 6.25 mg/kg/injection, schedule: Q04DX003 (ip), vehicle: saline); 99 % of control and 102 % of control (dose: 12.5 mg/kg/injection, schedule: Q04DX003 (ip), vehicle: saline); 99 % of control and 101 % of control (dose: 25.0 mg/kg/injection, schedule: Q04DX003 (ip), vehicle: saline).

Consider `CCOC(=O)c1c(Cl)c(CC)c(N=[N+]=[N-])n2c1nc1ccccc12`, for which the T/C was 101 % of control under setting [6] and 101 % of control under setting [7].

With `CC1=C[P+](c2ccccc2)(c2ccccc2)C=C(C)O1`, the T/C runs as follows: (dose: 3.12 mg/kg/injection, schedule: Q01DX005 (ip), vehicle: saline) 96 % of control; (dose: 6.25 mg/kg/injection, schedule: Q01DX005 (ip), vehicle: saline) 105 % of control; (dose: 12.5 mg/kg/injection, schedule: Q01DX005 (ip), vehicle: saline) 105 % of control.

In the case of `Cn1c2c(c3ccccc31)-c1ncncc1CC2`, the T/C (dose: 50.0 mg/kg/injection, schedule: Q01DX005 (ip), vehicle: saline + Tween-80 + alcohol) was 106 % of control; the T/C (dose: 100.0 mg/kg/injection, schedule: Q01DX005 (ip), vehicle: saline + Tween-80 + alcohol) was 92 % of control; the T/C (dose: 200.0 mg/kg/injection, schedule: Q01DX005 (ip), vehicle: saline + Tween-80 + alcohol) was 103 % of control.

As to `C1=CC2C(O1)OC2c1ccc2ccccc2c1` (stereo not drawn), the T/C is 114 % of control (dose: 7.5 mg/kg/injection, schedule: Q01DX005 (ip), vehicle: Klucel + Tween-80); 100 % of control and 97 % of control (dose: 15.0 mg/kg/injection, schedule: Q01DX005 (ip), vehicle: Klucel + Tween-80); 89 % of control (dose: 30.0 mg/kg/injection, schedule: Q01DX005 (ip), vehicle: Klucel + Tween-80); 89 % of control and 97 % of control (dose: 60.0 mg/kg/injection, schedule: Q01DX005 (ip), vehicle: Klucel + Tween-80).

For `CC(C)(C)c1cc(C(C)(C)C)c2ssnc1-2`, the T/C under setting [6] is 89 % of control; the T/C under setting [7] is 91 % of control; the T/C (dose: 240.0 mg/kg/injection, schedule: Q01DX005 (ip), vehicle: saline with Tween-80) is 91 % of control.

Turning to `Cc1nn(C)c(=O)c2c3ccccc3nn12`, the T/C reads like this: (dose: 100.0 mg/kg/injection, schedule: Q01DX001 (ip), vehicle: saline with Tween-80) 100 % of control; (dose: 200.0 mg/kg/injection, schedule: Q01DX001 (ip), vehicle: saline with Tween-80) 95 % of control; (dose: 400.0 mg/kg/injection, schedule: Q01DX001 (ip), vehicle: saline with Tween-80) 100 % of control.

With `O=C1NC(=O)C2=C1NCCN2`, the T/C by setting is: (dose: 100.0 mg/kg/injection, schedule: Q04DX003 (ip), vehicle: saline) 107 % of control; (dose: 200.0 mg/kg/injection, schedule: Q04DX003 (ip), vehicle: saline) 104 % of control; (dose: 400.0 mg/kg/injection, schedule: Q04DX003 (ip), vehicle: saline) 99 % of control.

Consider `C1CCC(CCCCc2nn[nH]n2)CC1`, for which the T/C under setting [3] is 102 % of control and the T/C under setting [4] is 100 % of control.

Regarding `CCCCCC[N+]1([O-])CC[N+]([O-])(CCCCCC)CC1` (stereo not drawn), the T/C was 101 % of control (dose: 15.0 mg/kg/injection, schedule: Q01DX005 (ip), vehicle: saline); 102 % of control (dose: 30.0 mg/kg/injection, schedule: Q01DX005 (ip), vehicle: saline); 102 % of control and 103 % of control under setting [2].

Consider `COc1ccc(CCNCCc2ccc(OC)c(OC)c2)cc1OC`, for which the T/C reads like this: (dose: 6.25 mg/kg/injection, schedule: Q01DX009 (ip), vehicle: water) 96 % of control; (dose: 12.5 mg/kg/injection, schedule: Q01DX009 (ip), vehicle: water) 108 % of control; (dose: 25.0 mg/kg/injection, schedule: Q01DX009 (ip), vehicle: water) 100 % of control; (dose: 50.0 mg/kg/injection, schedule: Q01DX009 (ip), vehicle: water) 100 % of control; (dose: 100.0 mg/kg/injection, schedule: Q01DX009 (ip), vehicle: water) 90 % of control.

In the case of `O=C(Nc1cc2cc([N+](=O)[O-])ccc2oc1=O)c1cccs1`, the T/C was 99 % of control (dose: 15.0 mg/kg/injection, schedule: Q01DX005 (ip), vehicle: saline with Tween-80); 90 % of control (dose: 30.0 mg/kg/injection, schedule: Q01DX005 (ip), vehicle: saline with Tween-80); 91 % of control under setting [6].

With `O=C(O)CC(NC(=O)c1ccccc1)C(=O)O` (stereo not drawn), the T/C under setting [3] was 96 % of control, the T/C under setting [4] was 102 % of control and the T/C under setting [5] is 92 % of control.

On to `COC(=O)C1=C(C(=O)OC)C23C(=O)c4ccc(OC)c(OC)c4C1N2CCc1cc2c(cc13)OCO2` (stereo not drawn), for which the T/C is 94 % of control (dose: 50.0 mg/kg/injection, schedule: Q04DX002 (ip), vehicle: saline with Tween-80); 102 % of control (dose: 100.0 mg/kg/injection, schedule: Q04DX002 (ip), vehicle: saline with Tween-80); 100 % of control (dose: 200.0 mg/kg/injection, schedule: Q04DX002 (ip), vehicle: saline with Tween-80).

With `COC1=CC23CC(CC(c4cc(OC)c(OC)c(OC)c4)C2C)OC3=CC1=O` (stereo not drawn), the T/C is, setting by setting: (dose: 4.38 mg/kg/injection, schedule: Q01DX005 (ip), vehicle: Klucel (hydroxypropylcellulose) (HPC)) 96 % of control; (dose: 8.75 mg/kg/injection, schedule: Q01DX005 (ip), vehicle: Klucel (hydroxypropylcellulose) (HPC)) 102 % of control; (dose: 17.5 mg/kg/injection, schedule: Q01DX005 (ip), vehicle: Klucel (hydroxypropylcellulose) (HPC)) 106 % of control.
